Results taken from patent publication US12599136B2, “Substituted isophthalic acid diamides and their use as herbicides” (Bayer Aktiengesellschaft, priority 2020, dated 2026).

How the values were obtained:
Format in all cases: in vivo
Avena fatua [1] = assay: Post-emergence herbicidal action against AVEFA; conditions: for Post-emergence action against AVEFA in %: visual assessment about 3 weeks after treatment
In short: (§1)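 Percent herbicidal action is rated by eye about 3 weeks after treatment against untreated controls, where 100% means dead plants and 0% means like controls. Plants in sandy loam are sprayed on green parts at the one-leaf stage with aqueous WP or EC preparations at 600 to 800 l/ha plus 0.2% wetting agent.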

Viola tricolor [2] = assay: Pre-emergence herbicidal action against VIOTR
In short: (§2)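 Seeds sown in sandy loam, soil-covered; compound sprayed on soil surface pre-emergence. Application: WP/EC, 600–800 l/ha, 0.2% wetting agent. Readout: visual % damage at 3 weeks.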

Polygonum convolvulus [3] = assay: Pre-emergence herbicidal action against POLCO; conditions: 320 g/ha
In short: as §2

Stellaria media [4] = assay: Pre-emergence herbicidal action against STEME
In short: as §2

Matricaria inodora [5] = assay: Pre-emergence herbicidal action against MATIN; conditions: visual score after 3 weeks vs untreated controls
In short: as §2

Matricaria inodora [6] = assay: Post-emergence herbicidal action against MATIN; conditions: for Post-emergence action against MATIN in %: visual assessment about 3 weeks after treatment
In short: as §1

Lolium rigidum [7] = assay: Pre-emergence herbicidal action against LOLRI
In short: as §2

Amaranthus retroflexus [8] = assay: Post-emergence herbicidal action against AMARE; conditions: visual assessment about 3 weeks after treatment
In short: as §1

Viola tricolor [9] = assay: Post-emergence herbicidal action against VIOTR
In short: as §1

Hordeum murinum [10] = assay: Post-emergence herbicidal action against HORMU
In short: as §1

Setaria viridis [11] = assay: Post-emergence herbicidal action against SETVI; conditions: for Post-emergence action against SETVI in %: visual assessment about 3 weeks after treatment
In short: as §1

Echinochloa crus-galli [12] = assay: Pre-emergence herbicidal action against ECHCG; conditions: visual score after 3 weeks vs untreated controls
In short: as §2

Abutilon theophrasti [13] = assay: Post-emergence herbicidal action against ABUTH
In short: as §1

Alopecurus myosuroides [14] = assay: Pre-emergence herbicidal action against ALOMY; conditions: visual score after 3 weeks vs untreated controls
In short: as §2

Veronica persica [15] = assay: Post-emergence herbicidal action against VERPE; conditions: visual assessment about 3 weeks after treatment
In short: as §1

Alopecurus myosuroides [16] = assay: Post-emergence herbicidal action against ALOMY
In short: as §1

Pharbitis purpurea [17] = assay: Post-emergence herbicidal action against PHBPU; conditions: for Post-emergence action against PHBPU in %: visual assessment about 3 weeks after treatment
In short: as §1

Stellaria media [18] = assay: Post-emergence herbicidal action against STEME; conditions: for Post-emergence action against STEME in %: visual assessment about 3 weeks after treatment
In short: as §1

Polygonum convolvulus [19] = assay: Post-emergence herbicidal action against POLCO; conditions: 80 g/ha, visual assessment about 3 weeks after treatment
In short: as §1

Cyperus esculentus [20] = assay: Post-emergence herbicidal action against CYPES; conditions: visual assessment about 3 weeks after treatment
In short: as §1

Hordeum murinum [21] = assay: Pre-emergence herbicidal action against HORMU; conditions: visual score after 3 weeks vs untreated controls
In short: as §2

Avena fatua [22] = assay: Pre-emergence herbicidal action against AVEFA; conditions: visual score after 3 weeks vs untreated controls
In short: as §2

Echinochloa crus-galli [23] = assay: Post-emergence herbicidal action against ECHCG; conditions: visual assessment about 3 weeks after treatment
In short: as §1

Lolium rigidum [24] = assay: Post-emergence herbicidal action against LOLRI; conditions: 80 g/ha
In short: as §1

Pharbitis purpurea [25] = assay: Pre-emergence herbicidal action against PHBPU; conditions: 320 g/ha; visual score after 3 weeks vs untreated controls
In short: as §2

Abutilon theophrasti [26] = assay: Pre-emergence herbicidal action against ABUTH; conditions: visual score after 3 weeks vs untreated controls
In short: as §2

Veronica persica [27] = assay: Pre-emergence herbicidal action against VERPE; conditions: 320 g/ha
In short: as §2

Cyperus esculentus [28] = assay: Pre-emergence herbicidal action against CYPES; conditions: 320 g/ha; visual score after 3 weeks vs untreated controls
In short: as §2

Setaria viridis [29] = assay: Pre-emergence herbicidal action against SETVI
In short: as §2

Amaranthus retroflexus [30] = assay: Pre-emergence herbicidal action against AMARE; conditions: visual score after 3 weeks vs untreated controls
In short: as §2

[31] = comparative experiment, 5 g a.i./ha

Structure (SMILES): CCn1nnnc1NC(=O)c1ccc(C(F)(F)F)c(C(=O)N(C)C)c1Cl [Example 2-123]
- Post-emergence action against AVEFA in % (Avena fatua [1]; 5 g/ha): 80%
- Post-emergence action against AVEFA in % (Avena fatua [1]; 20 g/ha): 100%
- Post-emergence action against AVEFA in % (Avena fatua [1]; 80 g/ha): 100%
- Herbicidal action against AVEFA (Avena fatua [1]; [31]): 80
- Pre-emergence action against VIOTR (Viola tricolor [2]; 80 g/ha): 90%
- Pre-emergence action against VIOTR (Viola tricolor [2]; 320 g/ha): 100%
- Pre-emergence action against POLCO (Polygonum convolvulus [3]): 80%
- Pre-emergence action against STEME (Stellaria media [4]; 20 g/ha): 90%
- Pre-emergence action against STEME (Stellaria media [4]; 80 g/ha): 100%
- Pre-emergence action against STEME (Stellaria media [4]; 320 g/ha): 100%
- Pre-emergence action against MATIN (Matricaria inodora [5]; 80 g/ha): 100%
- Pre-emergence action against MATIN (Matricaria inodora [5]; 320 g/ha): 100%
- Post-emergence action against MATIN in % (Matricaria inodora [6]; 5 g/ha): 90%
- Post-emergence action against MATIN in % (Matricaria inodora [6]; 20 g/ha): 90%
- Post-emergence action against MATIN in % (Matricaria inodora [6]; 80 g/ha): 100%
- Herbicidal action against MATIN (Matricaria inodora [6]; [31]): 90
- Pre-emergence action against LOLRI (Lolium rigidum [7]; 80 g/ha): 80%
- Pre-emergence action against LOLRI (Lolium rigidum [7]; 320 g/ha): 100%
- Post-emergence action against AMARE in % (Amaranthus retroflexus [8]; 5 g/ha): 100%
- Post-emergence action against AMARE in % (Amaranthus retroflexus [8]; 20 g/ha): 100%
- Post-emergence action against AMARE in % (Amaranthus retroflexus [8]; 80 g/ha): 100%
- Post-emergence action against VIOTR in % (Viola tricolor [9]; 20 g/ha): 100%
- Post-emergence action against VIOTR in % (Viola tricolor [9]; 80 g/ha): 100%
- Post-emergence action against HORMU in % (Hordeum murinum [10]; 20 g/ha): 90%
- Post-emergence action against HORMU in % (Hordeum murinum [10]; 80 g/ha): 100%
- Post-emergence action against SETVI in % (Setaria viridis [11]; 5 g/ha): 100%
- Post-emergence action against SETVI in % (Setaria viridis [11]; 20 g/ha): 100%
- Post-emergence action against SETVI in % (Setaria viridis [11]; 80 g/ha): 100%
- Herbicidal action against SETVI (Setaria viridis [11]; [31]): 100
- Pre-emergence action against ECHCG (Echinochloa crus-galli [12]; 20 g/ha): 80%
- Pre-emergence action against ECHCG (Echinochloa crus-galli [12]; 80 g/ha): 100%
- Pre-emergence action against ECHCG (Echinochloa crus-galli [12]; 320 g/ha): 100%
- Post-emergence action against ABUTH (Abutilon theophrasti [13]; 5 g/ha): 100%
- Post-emergence action against ABUTH (Abutilon theophrasti [13]; 20 g/ha): 100%
- Post-emergence action against ABUTH (Abutilon theophrasti [13]; 80 g/ha): 100%
- Pre-emergence action against ALOMY (Alopecurus myosuroides [14]; 80 g/ha): 90%
- Pre-emergence action against ALOMY (Alopecurus myosuroides [14]; 320 g/ha): 100%
- Post-emergence action against VERPE in % (Veronica persica [15]; 20 g/ha): 80%
- Post-emergence action against VERPE in % (Veronica persica [15]; 80 g/ha): 100%
- Post-emergence action against ALOMY (Alopecurus myosuroides [16]; 5 g/ha): 90%
- Post-emergence action against ALOMY (Alopecurus myosuroides [16]; 20 g/ha): 100%
- Post-emergence action against ALOMY (Alopecurus myosuroides [16]; 80 g/ha): 100%
- Herbicidal action against ALOMY (Alopecurus myosuroides [16]; [31]): 90
- Post-emergence action against PHBPU in % (Pharbitis purpurea [17]; 5 g/ha): 80%
- Post-emergence action against PHBPU in % (Pharbitis purpurea [17]; 20 g/ha): 90%
- Post-emergence action against PHBPU in % (Pharbitis purpurea [17]; 80 g/ha): 100%
- Herbicidal action against PHBPU (Pharbitis purpurea [17]; [31]): 80
- Post-emergence action against STEME in % (Stellaria media [18]; 5 g/ha): 100%
- Post-emergence action against STEME in % (Stellaria media [18]; 20 g/ha): 100%
- Post-emergence action against STEME in % (Stellaria media [18]; 80 g/ha): 100%
- Herbicidal action against STEME (Stellaria media [18]; [31]): 100
- Post-emergence action against POLCO in % (Polygonum convolvulus [19]): 90%
- Post-emergence action against CYPES in % (Cyperus esculentus [20]; 5 g/ha): 80%
- Post-emergence action against CYPES in % (Cyperus esculentus [20]; 20 g/ha): 80%
- Post-emergence action against CYPES in % (Cyperus esculentus [20]; 80 g/ha): 90%
- Pre-emergence action against HORMU (Hordeum murinum [21]; 80 g/ha): 80%
- Pre-emergence action against HORMU (Hordeum murinum [21]; 320 g/ha): 100%
- Pre-emergence action against AVEFA (Avena fatua [22]; 80 g/ha): 90%
- Pre-emergence action against AVEFA (Avena fatua [22]; 320 g/ha): 100%
- Post-emergence action against ECHCG in % (Echinochloa crus-galli [23]; 5 g/ha): 100%
- Post-emergence action against ECHCG in % (Echinochloa crus-galli [23]; 20 g/ha): 100%
- Post-emergence action against ECHCG in % (Echinochloa crus-galli [23]; 80 g/ha): 100%
- Post-emergence action against LOLRI in % (Lolium rigidum [24]): 100%
- Pre-emergence action against PHBPU (Pharbitis purpurea [25]): 80%
- Pre-emergence action against ABUTH (Abutilon theophrasti [26]; 20 g/ha): 100%
- Pre-emergence action against ABUTH (Abutilon theophrasti [26]; 80 g/ha): 100%
- Pre-emergence action against ABUTH (Abutilon theophrasti [26]; Dosage column 320 g/ha (heading prints 3200 g/ha)): 100%
- Pre-emergence action against VERPE (Veronica persica [27]): 100%
- Pre-emergence action against CYPES (Cyperus esculentus [28]): 80%
- Pre-emergence action against SETVI (Setaria viridis [29]; 20 g/ha): 90%
- Pre-emergence action against SETVI (Setaria viridis [29]; 80 g/ha): 100%
- Pre-emergence action against SETVI (Setaria viridis [29]; 320 g/ha): 100%
- Pre-emergence action against AMARE (Amaranthus retroflexus [30]; 20 g/ha): 90%
- Pre-emergence action against AMARE (Amaranthus retroflexus [30]; 80 g/ha): 100%
- Pre-emergence action against AMARE (Amaranthus retroflexus [30]; 320 g/ha): 100%
